The record followed here is PMC10257291, “Biological activities of extracts and compounds from Thai Kae-Lae (Maclura cochinchinensis (Lour.) Corner)” (BMC Complementary Medicine and Therapies, 2023).

In brackets after ≈: the same amount, converted by molar mass. Bounds are passed on as bounds.

Data set [1] relates to K562 cells. The data set is described as follows: Cytotoxicity by MTT assay in K562 cells. The following applies: Homo sapiens, 48 h, read-out: IC50 values (mean ± SD) K562. In kind it is cell-based. The protocol:
(§1) Leukaemic cell lines including KG-1a (leukaemic stem cell-like cell line with stem cell population), EoL-1 (human […] leukaemic cell line), and K562 (human erythroid leukaemic cell line) were cultured as previously described. The MTT (3-(4,5-dimethylthiazol-2-yl)-2,5-diphenyltetrazolium bromide) assay was used to determine the cytotoxicity of […] extracts and active compounds on leukaemic cells. The method was described previously. K562 (1.0 × 10^5 cells/mL), EoL-1 (3.0 × 10^5 cells/mL), and KG-1a (2.0 × 10^5 cells/mL) were added samples and then incubated for 48 h. The percentage of surviving cells was calculated using the following equation: 1 %Cellviability=Meanabsorbanceintestwell/[…] 50% inhibitory concentration (IC50) was determined as the lowest concentration that inhibited cell growth by 50% compared with the untreated control.

Data set [2] relates to EoL-1 cells. The data set is described as follows: Cytotoxicity by MTT assay in EoL-1 cells. The following applies: Homo sapiens, EOL1, 48 h, read-out: IC50 values (mean ± SD) EoL-1. The class given is cell-based. On the procedure:
as §1

For the next data set, the system named is KG-1a cells. The data set can be described thus: Cytotoxicity by MTT assay in KG-1a cells. The class given is cell-based. The following applies: Homo sapiens, 48 h, read-out: IC50 values (mean ± SD) KG-1a. The protocol: as §1
A general note: Formazan colour is commonly taken as a measure of viable cells.

The subject of the next data set is PBMCs. The data set can be described thus: Cytotoxicity of PBMCs by MTT assay. In kind it is cell-based. The following applies: Homo sapiens, PBMC, 48 h, normal PBMCs, read-out: IC50 values (mean ± SD) PBMCs. The protocol:
Method was done as previously described. Briefly, peripheral blood mononuclear cells (PBMCs) were obtained from healthy donors using Ficoll-Hypaque density-gradient centrifugation using Lymphoprep™ solution (Axis-Shield, Oslo, Norway). The PBMCs (1 × 10^6 cells/mL) were cultured in complete RPMI-1640 medium in 96-well plates overnight in a CO2 incubator. […] Then cells were further incubated for 48 h. The survival rate of cells was assessed using the MTT assay.

The subject of another data set is RAW 264.7 cells. The data set can be described thus: RAW 264.7 cell viability by MTT assay. In kind it is cell-based. The following applies: Mus musculus, RAW264.7, read-out: IC20 values (concentrations at 80% of RAW 264.7 cells). On the procedure: Mouse monocyte macrophage RAW 264.7 cells (American Type Culture Collection, […]-71) were stimulated with lipopolysaccharide (LPS) or phytohemagglutinin (PHA). The LPS treated RAW 264.7 cells served as a vehicle control, of which the NO production, and the secreted cytokines were defined as 100%, whereas a negative control was non-treated RAW 264.7 cells. Dexamethasone (an anti-inflammatory drug) was used as a positive control. RAW 264.7 cell viability was also determined with the assay kit using MTT assay. The supernatant was removed, and MTT was added. After 2 h in a CO2 incubator, the supernatant was removed, and the formazan crystal were dissolved with DMSO. The optical density was measured at 578 nm and corrected with the reference wavelength of 630 nm using a multimode detector (Beckman CoulterDTX880, Fullerton, CA, USA). NO inhibitions were calculated using the following equation: […]

A further data set relates to IL-2. The data set can be described thus: IL-2 secretion in PHA-stimulated PBMCs (ELISA). The class given is cell-based, human. The following applies: sample at IC20 value, vs dexamethasone 1 μg/mL. The source says:
Mouse monocyte macrophage RAW 264.7 cells (American Type Culture Collection, […]-71) were stimulated with lipopolysaccharide (LPS) or phytohemagglutinin (PHA). The LPS treated RAW 264.7 cells served as a vehicle control, of which the NO production, and the secreted cytokines were defined as 100%, whereas a negative control was non-treated RAW 264.7 cells. Dexamethasone (an anti-inflammatory drug) was used as a positive control. PBMCs (1 × 10^5 cells/well in RPMI-1640 for IL-2) and Raw cells (1 × 10^5 cells/well in DMEM for TNF-α) were seeded for 24 h in a CO2 incubator set at 37 °C and 5% CO2/95% humidified air. Then cells were treated with […] fractional extracts (IC20 value) or pure compounds (IC20 value), or dexamethasone (1 μg/mL) were added. Following 2-h of incubation in a CO2 incubator, LPS was treated for a final dose of 1 μg/mL under conditions of TNF-α measurement. In contrast, PHA was added to induce inflammation in IL-2 measurement. After 24 h, the media were removed and centrifuged at 13,500 × g for 10 min and 100 μL of the supernatant was analysed by the protocol of R&D Systems, Minneapolis, MN, USA using ELISA technique. The absorbance was measured at 450 nm and corrected with the reference wavelength of 570 nm (Beckman CoulterDTX880, Fullerton, CA, USA). Viability of PBMCs and RAW 264.7 cells was also determined using MTT assay as described previously. IL-2 and TNF-α secretion inhibitions were calculated as bellow:4 %Cytokineinhibition=A-B/A×100 A is the optical density of the mixture without the sample, while B is the optical density of the mixture with the sample. Dexamethasone was a positive control. All experiments were done in triplicate.
In general terms: ELISA stands for enzyme-linked immunosorbent assay.

The subject of data set [3] is K562 cells. The data set can be described thus: Rate of proliferation, K562 cells. The class given is cell-based, human. The following applies: for decrease of rate of proliferation, K562 cells: IC20 value, 24 and 48 h (time-response), vs control; for rate of cell proliferation, K562 cells (in words): concentrations IC10 − IC20 values, 48 h. On the procedure: (§2) According to the principle of trypan blue exclusion, viable cells with intact membranes can exclude trypan blue dye, while dead cells with compromised membranes are stained by the trypan blue dye solution. A cell suspension and trypan blue dye solution (0.2%) were mixed, and viable and dead cells were counted under microscope using a hemacytometer. Then, the percentage of viable cells was calculated. KG-1a, EoL-1 and K562 cells were cultured with crude fractional extracts and active pure compounds at various concentrations (10 − 20% growth inhibition; IC10 − IC20 values) of each extract for 48 h, at a 20% growth inhibition (IC20 value) of each extract for 24 and 48 h. Following incubation, cells were harvested, and the total cell number was counted using trypan blue exclusion method. Three independent experiments were plotted as a dose–response curve and compared with the vehicle control. Meanwhile, the total cell number of each cell line after fractional extract and pure compound treatments at 24 and 48 h were calculated and plotted as a time-response curve. Slopes from each graph were considered as the rate of cell proliferation.

Data set [4] concerns EoL-1 cells. The data set can be described thus: Rate of proliferation, EoL-1 cells. In kind it is cell-based, human. The following applies: for decrease of rate of proliferation, EoL-1 cells: IC20 value, 24 and 48 h (time-response), vs control; for rate of cell proliferation, EoL-1 cells (in words): concentrations IC10 − IC20 values, 48 h. On the procedure: as §2
A short description of the next data set: RBC haemolysis induction. The following applies: human, 2% red blood cell suspension.

Protocol for RBC haemolysis induction: The whole blood samples were obtained from normal volunteers. Red blood cells were separated by centrifugation and washed 2 times with 0.9% NaCl. Then, 2% RBC suspension was incubated with crude fractional extracts and compounds at 37 °C for 30 min. Triton-X 100 (2%) and NaCl (0.9%) were positive and negative controls, respectively. Then, the supernatant was collected, and haemoglobin concentration was measured by spectrophotometry at 540 nm. The haemolysis induction was calculated using the following equation:5 %Haemolysisinduction=Absorbance of sample/Absorbance of positive contr×100

Usually IC50 stands for the concentration at which inhibition is half-maximal. As to `O=c1c(O)c(-c2ccc(O)c(O)c2)oc2cc(O)cc(O)c12` [Quercetin, quercetin], the IC50 in the data set with K562 cells [1] is above 100 µg/mL. In the data set on EoL-1 cells [2], the IC50 amounted to 5.89 ± 0.46 µg/mL (≈ 19.5 µM). The IC50 with KG-1a cells amounted to 72.6 ± 7.45 µg/mL (≈ 240 µM). The IC50 in the data set on PBMCs is above 100 µg/mL. Besides, the IC20 in the data set on RAW 264.7 cells is 35.5 ± 6.49 µg/mL (≈ 118 µM). The IL-2 inhibition result in the data set on IL-2 is “suppressed IL-2 significantly better than dexamethasone”. Moreover, in the data set with K562 cells [3], the “decrease of rate of proliferation, K562 cells” value (from here on “decrease of rate … K562 cells”) is “significantly decreasing rates of proliferation” and the “rate of cell proliferation, K562 cells (in words)” value (from here on “rate … K562 cells (in words)”) is on record as “significantly decreasing rate of cell proliferation”. Besides, in the data set with EoL-1 cells [4], the “decrease of rate of proliferation, EoL-1 cells” value (shortened to “decrease of rate … EoL-1 cells”) is listed as “significantly decreasing rates of proliferation” and the “rate of cell proliferation, EoL-1 cells (in words)” value was “significantly decreasing rate of cell proliferation”. In the data set “RBC haemolysis induction”, this compound yielded a hemolysis at 30 min, 10 μg/mL of 8.51 ± 0.86%; a hemolysis at 30 min, 50 μg/mL of 8.85 ± 0.21%; a hemolysis at 30 min, 100 μg/mL of 8.74 ± 0.26%.
Consider `O=c1c(O)c(-c2ccc(O)cc2O)oc2cc(O)cc(O)c12` [Morin, 2’,3,4’,5,7-pentahydroxyflavonone], for which the IC50 with K562 cells [1] is above 100 µg/mL. Besides, the IC50 in the data set with EoL-1 cells [2] amounted to 18.4 ± 1.6 µg/mL (≈ 60.7 µM). In addition, in the data set with KG-1a cells, the IC50 is above 100 µg/mL. Besides, the IC50 in the data set on PBMCs was above 100 µg/mL. In the data set on RAW 264.7 cells, the IC20 amounted to 62.4 ± 7.44 µg/mL (≈ 206 µM). Also, the IL-2 inhibition entry with IL-2 was “suppressed IL-2 significantly better than dexamethasone”. In the data set on K562 cells [3], the “decrease of rate … K562 cells” value is reported as “decrease the proliferation rate”; the “rate … K562 cells (in words)” value was “significant difference at concentrations of 70, 80, and 90 µg/mL”. Further, the “decrease of rate … EoL-1 cells” value in the data set on EoL-1 cells [4] is “decrease the proliferation rate”. In the data set “RBC haemolysis induction”, this compound registered a hemolysis at 30 min, 50 μg/mL of 9.39 ± 1.34%; a hemolysis at 30 min, 100 μg/mL of 9.82 ± 1.09%; a hemolysis at 30 min, 150 μg/mL of 10.2 ± 1%.
With `Oc1ccc(/C=C/c2cc(O)cc(O)c2)cc1` [Resveratrol, resveratrol], in the data set on K562 cells [1], the IC50 is 41.6 ± 1.92 µg/mL (≈ 182 µM). In addition, the IC50 in the data set on EoL-1 cells [2] turned out to be 5.49 ± 0.29 µg/mL (≈ 24.1 µM). The IC50 in the data set on KG-1a cells was determined as 20.7 ± 2.65 µg/mL (≈ 90.7 µM). Further, the IC50 in the data set with PBMCs was 44 ± 9.7 µg/mL (≈ 193 µM). For the same compound, the IC20 in the data set on RAW 264.7 cells turned out to be 3.4 ± 0.2 µg/mL (≈ 14.9 µM). The IL-2 inhibition result with IL-2 is listed as “suppressed IL-2 significantly better than dexamethasone”. In the data set with K562 cells [3], the “decrease of rate … K562 cells” value came to 93.20% and the “rate … K562 cells (in words)” value is reported as “significantly decreasing rate of cell proliferation”. In the data set on EoL-1 cells [4], the “decrease of rate … EoL-1 cells” value came out at 95.45% and the “rate of cell proliferation, EoL-1 cells (in words)” value was “significantly decreasing rate of cell proliferation”. For the same compound, in the data set “RBC haemolysis induction”, the hemolysis at 30 min, 10 μg/mL came to 8.96 ± 1.83%; the hemolysis at 30 min, 20 μg/mL was 8.58 ± 0.67%; the hemolysis at 30 min, 40 μg/mL came to 8.95 ± 0.21%.
